Patent US8278465B2, “Coumarin derivative having antitumor activity” (Chugai Seiyaku Kabushiki Kaisha, priority 2006, dated 2012)
Read-outs that look alike come from different tables or passages of the source.

How the values were obtained:
[1] = Calculation of AUC value (plasma concentration after oral administration); assay type: in vivo; conditions: BALB/c (nu/nu), mouse, mice, plasma 15 min to 24 h, trapezoidal method, read-out: AUC (area under the blood concentration-time curve)
Experimental: The AUC (area under the blood concentration-time curve) values of the compounds and salts shown in Table 2 (only compound 1j-2-16-2 is Na salt; the others are free form) were calculated by administering the test substance to an animal and measuring its concentration in plasma. As the animals, BALB/c (nu/nu) mice (4 to 6 weeks old) procured from Japan Charles River Laboratories were used after a one-week taming period. As for the test substances other than Comp. 1, 5 mg/mL of the substance solution was given at 0.2 mL/10 g body weight (dose of the test substance: 100 mg/kg body weight). As for Comp. 1, 10 mg/mL of the substance solution was given at 0.2 mL/10 g body weight (dose of the test substance: 200 mg/kg body weight). Administration of the substance solution to a mouse was performed forcibly using an oral feeding tube. Blood was collected from the eye pit 15 minutes, 2 hours, 7 hours and 24 hours after administration of the substance solution, using a hematocrit tube treated with heparin. Paraoxon (final concentration: 1 mM) was added to the collected blood as a stabilizer, the mixture was centrifuged at 10000 rpm for 3 minutes, and plasma was separated. The plasma was stored in a freezer set to −80° C. until the time of measurement. The measurement was carried out as follows. 100 μL of distilled water to which the internal standard substance (a structural homolog, concentration adjusted appropriately depending on the compound used) had been added was added to 5 μL of the plasma, and then, a measurement sample was prepared through solid phase extraction processing using an Oasis HLB μElution Plate (Waters), and was analyzed by LC/MS/MS. The plasma concentration was calculated using a calibration curve prepared based on the ratio of standard substance to internal standard substance in control plasma of mice. The AUC was calculated from the data of plasma concentration of the drug by the trapezoidal method using Microsoft Excel 2003 (Microsoft).

[2] = system: human colon cancer cell line HCT116; experiment: Measurement of cell proliferation inhibitory activity (Cell Counting Kit-8); assay type: cell-based; conditions: Homo sapiens, HCT-116, 96 h, HCT116, 4 days incubation, read-out: IC50 (50% proliferation inhibitory concentration)
Experimental: The cell proliferation inhibitory activities of the compounds and salts shown in Tables 1-1, 1-2 and Table 2 were measured as follows, using the human colon cancer cell line HCT116 (American Type Culture Collection, VA, USA). 2000 to 3000 cells per well of the human colon cancer cell line HCT116 was placed in a 96-well culture plate, a predetermined concentration (0.00038 μM, 0.00076 μM, 0.0015 μM, 0.0031 μM, 0.0061 μM, 0.012 μM, 0.024 μM, 0.049 μM, 0.098 μM, 0.195 μM, 0.39 μM, 0.78 μM, 1.56 μM, 3.13 μM, 6.25 μM, 12.5 μM, 25 μM or 50 μM) of the test substance was added thereto, and the mixture was then incubated at 37° C. under 5% CO2 environment for 4 days. On day 4 of incubation, the Cell Counting Kit-8 solution (Dojindo Laboratories) was added, the absorbance (measurement wavelength: 450 nm; reference wavelength: 615 nm) was measured following the protocol attached to the kit, and the 50% proliferation inhibitory concentration (IC50) was calculated.

Structure (SMILES)	AUC ([1]; 200 mg/kg body weight (Comp. 1)) [µM·h]	IC50 ([2]; Table 1-2) [nM]	IC50 ([2]; Table 2) [nM]	AUC ([1]; 100 mg/kg body weight) [µM·h]	AUC ([1]; in vivo, 100 mg/kg body weight) [µM·h]
CCS(=O)(=O)Nc1cccc(Cc2c(C)c3cc(Cl)c(Oc4ncccn4)cc3oc2=O)c1 [Comp. 1, reference compound]	97.6	160			
CNS(=O)(=O)Nc1cccc(Cc2c(C)c3ccc(OC(=O)N(C)C)cc3oc2=O)n1 [Compound 1j-1-13-2, Dimethylcarbamic acid 4-methyl-3-{6-(methylaminosulfonyl)aminopyridin-2-ylmethyl}-2-oxo-2H-1-benzopyran-7-yl ester]			271		314
CNS(=O)(=O)Nc1cc(Cc2c(C)c3cc(Cl)c(Oc4ncccn4)cc3oc2=O)ccn1 [Compound 1j-2-12-2, 3-{2-(Methylaminosulfonyl)aminopyridin-4-ylmethyl}-4-methyl-7-(pyrimidin-2-yloxy)-6-chloro-2-oxo-2H-1-benzopyran]			282	252	
CNS(=O)(=O)Nc1cccc(Cc2c(C)c3ccc(Oc4nccs4)cc3oc2=O)c1 [Compound 1j-3-1-2, 3-{3-(Methylaminosulfonyl)aminobenzyl}-4-methyl-7-(thiazol-2-yloxy)-2-oxo-2H-1-benzopyran]			164	199	
CNS(=O)(=O)Nc1cccc(Cc2c(C)c3cc(C)c(Oc4nccs4)cc3oc2=O)c1 [Compound 1j-3-8-2, 3-{3-(Methylaminosulfonyl)aminobenzyl}-4-methyl-7-(thiazol-2-yloxy)-6-methyl-2-oxo-2H-1-benzopyran]			96.8	149	
CNC(=O)CS(=O)(=O)Nc1cccc(Cc2c(C)c3ccc(Oc4nccs4)cc3oc2=O)c1F [Compound 1o-3-4-2, 2-{2-Fluoro-3-[4-methyl-2-oxo-7-(thiazol-2-yloxy)-2H-1-benzopyran-3-ylmethyl]phenylsulfamoyl}-N-methyl-acetamide]			325	367	

Second part, led by results:

AUC ([1]; 200 mg/kg body weight (Comp. 1)) [µM·h]	IC50 ([2]; Table 1-2) [nM]	IC50 ([2]; Table 2) [nM]	AUC ([1]; 100 mg/kg body weight) [µM·h]	Structure (SMILES)	AUC ([1]; in vivo, 100 mg/kg body weight) [µM·h]
		150	811	Cc1c(Cc2cccc(NS(N)(=O)=O)c2F)c(=O)oc2cc(Oc3ncccn3)ccc12 [Compound 1j-2-4-1, 3-{2-Fluoro-3-(aminosulfonyl)aminobenzyl}-4-methyl-7-(pyrimidin-2-yloxy)-2-oxo-2H-1-benzopyran]	
		44.7	425	CNS(=O)(=O)Nc1cccc(Cc2c(C)c3ccc(Oc4ncccn4)cc3oc2=O)c1F [Compound 1j-2-4-2, 3-{2-Fluoro-3-(methylaminosulfonyl)aminobenzyl}-4-methyl-7-(pyrimidin-2-yloxy)-2-oxo-2H-1-benzopyran]	
		165	317	CNS(=O)(=O)Nc1cccc(Cc2c(CF)c3ccc(Oc4ncccn4)cc3oc2=O)c1F [Compound 1j-2-4-2F, 3-{2-Fluoro-3-(methylaminosulfonyl)aminobenzyl}-4-fluoromethyl-7-(pyrimidin-2-yloxy)-2-oxo-2H-1-benzopyran]	
		75.1	344	CNS(=O)(=O)Nc1cccc(Cc2c(C)c3cc(F)c(Oc4ncccn4)cc3oc2=O)c1F [Compound 1j-2-5-2, 3-{2-Fluoro-3-(methylaminosulfonyl)aminobenzyl}-4-methyl-7-(pyrimidin-2-yloxy)-6-fluoro-2-oxo-2H-1-benzopyran]	
		40.8	3200	CNS(=O)(=O)Nc1nccc(Cc2c(C)c3ccc(Oc4ncccn4)cc3oc2=O)c1F [Compound 1j-2-16-2, 3-{2-(Methylaminosulfonyl)amino-3-fluoropyridin-4-ylmethyl}-4-methyl-7-(pyrimidin-2-yloxy)-2-oxo-2H-1-benzopyran]	
